# Laboratory results taken from patent US20260337190A1, “CRYSTAL FORM OF PYRIDINOPYRIMIDINONE COMPOUND, ACID SALT THEREOF, CRYSTAL FORM OF ACID SALT THEREOF, AND USE” (Wuhan Humanwell Innovative Drug Research and Development …, priority 2022, published 2026).
# “Also recorded” adds a separate entry of the source.
# Assays:
# KRAS G12C-SOS1 [1] = biological target: T1, KRAS G12C-SOS1 (Homo sapiens, UniProt Q07889); experiment: Inhibition of KRAS G12C::SOS1 binding; details: summary statement
# T1 sequence (Q07889 1-1333): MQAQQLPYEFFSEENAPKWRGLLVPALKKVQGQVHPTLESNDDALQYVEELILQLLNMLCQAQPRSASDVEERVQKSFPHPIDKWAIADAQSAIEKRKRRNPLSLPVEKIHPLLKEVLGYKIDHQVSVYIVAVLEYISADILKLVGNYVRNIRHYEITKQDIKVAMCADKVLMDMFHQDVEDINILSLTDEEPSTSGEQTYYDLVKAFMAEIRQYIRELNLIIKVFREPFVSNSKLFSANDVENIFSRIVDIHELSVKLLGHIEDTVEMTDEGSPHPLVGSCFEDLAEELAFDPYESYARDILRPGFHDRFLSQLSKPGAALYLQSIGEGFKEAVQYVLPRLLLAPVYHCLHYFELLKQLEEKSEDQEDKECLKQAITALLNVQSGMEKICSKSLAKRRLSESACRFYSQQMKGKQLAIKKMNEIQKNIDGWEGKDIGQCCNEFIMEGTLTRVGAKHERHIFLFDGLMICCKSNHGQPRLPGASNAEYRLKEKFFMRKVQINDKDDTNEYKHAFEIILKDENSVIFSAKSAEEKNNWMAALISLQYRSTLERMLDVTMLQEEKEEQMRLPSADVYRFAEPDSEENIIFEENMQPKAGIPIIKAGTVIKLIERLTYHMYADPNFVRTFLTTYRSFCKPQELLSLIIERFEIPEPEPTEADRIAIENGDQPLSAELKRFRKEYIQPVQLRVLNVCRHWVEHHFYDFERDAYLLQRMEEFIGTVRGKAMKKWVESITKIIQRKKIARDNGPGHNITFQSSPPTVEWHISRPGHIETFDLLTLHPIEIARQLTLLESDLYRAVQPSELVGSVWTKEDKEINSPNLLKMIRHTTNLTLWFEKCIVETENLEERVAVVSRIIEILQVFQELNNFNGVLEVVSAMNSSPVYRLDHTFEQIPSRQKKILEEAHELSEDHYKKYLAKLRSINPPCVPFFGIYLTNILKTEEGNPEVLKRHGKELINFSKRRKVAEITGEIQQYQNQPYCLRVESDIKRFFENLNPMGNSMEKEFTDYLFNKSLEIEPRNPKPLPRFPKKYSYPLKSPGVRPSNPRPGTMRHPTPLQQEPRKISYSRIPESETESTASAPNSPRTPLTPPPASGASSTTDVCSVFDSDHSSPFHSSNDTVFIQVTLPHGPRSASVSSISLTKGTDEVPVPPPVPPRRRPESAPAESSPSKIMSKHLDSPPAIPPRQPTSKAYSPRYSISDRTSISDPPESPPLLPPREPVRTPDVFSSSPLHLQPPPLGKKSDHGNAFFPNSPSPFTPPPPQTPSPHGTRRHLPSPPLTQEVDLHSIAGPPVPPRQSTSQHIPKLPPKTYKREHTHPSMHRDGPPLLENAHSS
# [2] = Human liver microsome stability; assay type: in vitro ADME
# Protocol: The human liver microsome stability test was performed by incubating the compound and human liver microsomes in vitro. First, the compound to be tested was prepared into a 10 mM stock solution in DMSO solvent, and then the compound was diluted to 0.5 mM with acetonitrile. Human liver microsomes (Corning) were diluted with PBS into a microsome/buffer solution, and the solution was used to dilute 0.5 mM compound into a working solution, in which the concentration of the compound was 1.5 μM, and the concentration of human liver microsomes was 0.75 mg/mL. A deep-well plate was taken, 30 μL of the working solution was added per well, and then 15 μL of pre-heated 6 mM NADPH solution was added thereto to initiate a reaction, and the reaction was incubated at 37 °C At 0, 5, 15, 30, and 45 min of the incubation, 135 μL of acetonitrile was added to the corresponding wells to terminate the reaction. After the reaction was terminated with acetonitrile at the last time point of 45 min, the deep-well plate was vortexed for 10 min (600 rpm/min), and then centrifuged for 15 min. After centrifugation, the supernatant was collected, and added with purified water in a ratio of 1:1 to perform LC-MS/MS detection. A ratio of a peak area of compound to a peak area of internal standard at each time point was obtained, and the peak area ratios of the compound at 5, 15, 30, and 45 min were compared with the peak area ratio at 0 min to calculate the remaining percentage of the compound at each time point. T1/2 was calculated by using GraphPad 5 software.
# [3] = Mouse pharmacokinetic test, oral gavage; assay type: in vivo, male ICR mice; details: summary statement; listed as compound of the present disclosure
# Protocol: Male ICR mice (20 to 25 g) were used, and fasted overnight. Three mice were taken and orally administered by gavage (10 mg/kg). Blood was collected before the administration, and at 15 min, 30 min, 1 h, 2 h, 4 h, 8 h, and 24 h after the administration. 6,800 g of the blood samples were centrifuged at 2 to 8 °C for 6 min, and plasma was collected and stored at −80 °C The plasma at each time point was taken and added with an acetonitrile solution containing internal standard in 3 to 5 times the amount, vortexed and mixed for 1 min, and centrifuged at 13,000 rpm/min at 4 °C for 10 min. The supernatant was collected, added with water in 3 times the amount, and mixed. An appropriate amount of the mixture was taken for LC-MS/MS analysis. The main pharmacokinetic parameters were analyzed using WinNonlin 7.0 software with non-compartmental model.
# NCI-H1975 tumor = experiment: In vivo efficacy on NCI-H1975 non-small cell lung cancer (in combination with osimertinib); design: species or system mice
# Protocol: NCI-H1975 tumor cells were cultured in an incubator at 37 °C and 5% CO2 using medium containing inactivated RPMI 1640+10% FBS. After reaching a confluency rate of 80 to 90%, the cells were passaged by subculturing. After one week of adaptive feeding in mice, NCI-H1975 cells in logarithmic phase were inoculated subcutaneously into the right flank of mice at a concentration of 5×10^6/100 μL. Tumor growth was regularly monitored until the tumors reached an average volume of 100 to 150 mm^3. […] Tumor size and animal weight were measured and recorded before and during the administration process. The differences in tumor size between the model group and administration group were compared to determine the efficacy.
# LOVO tumor = experiment: In vivo efficacy on LOVO colorectal cancer; design: species or system mice
# Protocol: After one week of adaptive feeding of mice, LOVO cells in a logarithmic phase were resuspended in serum-free F12K, 5×10^6 LOVO cells were inoculated subcutaneously at the right flank at 100 μL per mouse, and tumor growth was observed regularly. When the tumor grew to an average volume of 150 to 200 mm^3, the mice were randomly divided into a model group and an administration group based on the tumor size and body weight. The tumor size and body weight were measured and recorded before and during the administration. After the treatment, the tumor size in the model group was compared with that in the administration group to determine the efficacy.
# KRAS G12C-SOS1 [4] = biological target: T1, KRAS G12C-SOS1; experiment: Inhibitory effect on KRAS G12C-SOS1; assay type: biochemical; design: SOS1 catalytic domain likely; details: summary statement
smiles,measurement,setting,value
"Cc1nc(N[C@H](C)c2cccc(S(F)(F)(F)(F)F)c2)c2cn(C3(CF)CC3)c(=O)cc2n1 [compound of formula I, (R)-6-(1-(fluoromethyl)cyclopropyl)-2-methyl-4-((1-(3-(pentafluorosulfanyl)phenyl)ethyl)amino)pyrido[4,3-d]pyrimidin-7(6H)-one]",inhibitory effect on KRAS G12C::SOS1 binding,KRAS G12C-SOS1 [1],significant inhibitory effect
same,remaining at 0.5 h,"[2]; human liver microsomes, 30 min, 37 °C, NADPH, read-out: Remaining percentage of compound after incubation for 30 min",98.7%
same,hepatic metabolic stability,[2]; summary statement,good hepatic metabolic stability
same,metabolism in the human body,[2]; summary statement,slow metabolism in the human body
same,pharmacokinetic properties / exposure,[3],high exposure; also recorded: excellent pharmacokinetic properties
same,average tumor volume at the end of the treatment vs single-drug group of osimertinib,NCI-H1975 tumor; compound I-1 7.5 mg/kg BID or 25 mg/kg BID + osimertinib 1 mg/kg QD,"significantly reduced, and the difference is statistically significant"
same,synergistic effect of combined administration,NCI-H1975 tumor; compound I-1 25 mg/kg BID + osimertinib 1 mg/kg QD,synergistic effect
same,anti-tumor efficacy of combination with osimertinib vs single-drug administration,NCI-H1975 tumor; in combination with osimertinib,significantly better than that of single-drug administration
same,inhibitory effect on LOVO tumor tissue growth vs control compound II,LOVO tumor; comparison with control compound II,better than that of the control compound II
same,inhibitory effect on LOVO tumor tissue growth,"LOVO tumor; mouse, in vivo",significant inhibitory effect
same,inhibitory effect on KRAS G12C-SOS1,KRAS G12C-SOS1 [4],significant inhibitory effect
